Assay results taken from PubChem BioAssay AID330 (DTP/NCI, 2004).
Several values for one entry are separate records, joined by “and”; a condition that tells them apart may be missing. Equal entries are not always repeated. Toxic doses and inconclusive results are not listed. The calls were made as follows: active = survival T/C of 150% or more; inactive = T/C below 125% in these data.

Tested on: P388 leukemia ip, CD2F1 mice, survival T/C
Assay: NCI In Vivo Anticancer Drug Screen. Data for tumor model P388 Leukemia (intraperitoneal) in CD2F1 (CDF1) mice
Details: endpoint: median survival time, higher = longer survival
Procedure, shortened: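 Mice carrying the transplanted tumor received test compound or vehicle. Survival was recorded in each group, and the value is the treated-group measurement divided by that of the vehicle-treated control group.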

[1] = dose: 60.0 mg/kg/injection, schedule: Q01DX005 (ip), vehicle: saline with Tween-80
[2] = dose: 100.0 mg/kg/injection, schedule: Q04DX002 (ip), vehicle: saline
[3] = dose: 200.0 mg/kg/injection, schedule: Q04DX002 (ip), vehicle: saline
[4] = dose: 400.0 mg/kg/injection, schedule: Q04DX002 (ip), vehicle: saline
[5] = dose: 12.5 mg/kg/injection, schedule: Q01DX009 (ip), vehicle: saline with Tween-80
[6] = dose: 100.0 mg/kg/injection, schedule: Q01DX009 (ip), vehicle: saline with Tween-80
[7] = dose: 50.0 mg/kg/injection, schedule: Q01DX005 (ip), vehicle: Klucel (hydroxypropylcellulose) (HPC)
[8] = dose: 100.0 mg/kg/injection, schedule: Q01DX005 (ip), vehicle: Klucel (hydroxypropylcellulose) (HPC)
[9] = dose: 200.0 mg/kg/injection, schedule: Q01DX005 (ip), vehicle: Klucel (hydroxypropylcellulose) (HPC)
[10] = dose: 25.0 mg/kg/injection, schedule: Q01DX009 (ip), vehicle: saline with Tween-80
[11] = dose: 50.0 mg/kg/injection, schedule: Q01DX009 (ip), vehicle: saline with Tween-80
[12] = dose: 50.0 mg/kg/injection, schedule: Q01DX009 (ip), vehicle: Klucel (hydroxypropylcellulose) (HPC)
[13] = dose: 100.0 mg/kg/injection, schedule: Q01DX009 (ip), vehicle: Klucel (hydroxypropylcellulose) (HPC)
[14] = dose: 200.0 mg/kg/injection, schedule: Q01DX009 (ip), vehicle: saline with Tween-80
[15] = dose: 50.0 mg/kg/injection, schedule: Q01DX005 (ip), vehicle: saline with Tween-80
[16] = dose: 100.0 mg/kg/injection, schedule: Q01DX005 (ip), vehicle: saline with Tween-80
[17] = dose: 200.0 mg/kg/injection, schedule: Q01DX005 (ip), vehicle: saline with Tween-80
[18] = dose: 60.0 mg/kg/injection, schedule: Q01DX005 (ip), vehicle: Klucel (hydroxypropylcellulose) (HPC)
[19] = dose: 120.0 mg/kg/injection, schedule: Q01DX005 (ip), vehicle: Klucel (hydroxypropylcellulose) (HPC)
[20] = dose: 240.0 mg/kg/injection, schedule: Q01DX005 (ip), vehicle: Klucel (hydroxypropylcellulose) (HPC)
[21] = dose: 25.0 mg/kg/injection, schedule: Q01DX005 (ip), vehicle: saline with Tween-80
[22] = dose: 25.0 mg/kg/injection, schedule: Q01DX005 (ip), vehicle: Klucel (hydroxypropylcellulose) (HPC)
[23] = dose: 50.0 mg/kg/injection, schedule: Q01DX009 (ip), vehicle: saline
[24] = dose: 100.0 mg/kg/injection, schedule: Q01DX009 (ip), vehicle: saline

Measured: T/C

COc1ccc(OC)c(NC(=O)CCCC(=O)C(C#N)c2ccc(CC#N)cc2)c1 (stereo not drawn)
inactive: [1] 98 % of control | dose: 120.0 mg/kg/injection, schedule: Q01DX005 (ip), vehicle: saline with Tween-80 98 % of control | dose: 240.0 mg/kg/injection, schedule: Q01DX005 (ip), vehicle: saline with Tween-80 103 % of control

CC(=O)C(C(C)=O)=[Se](c1ccccc1)c1ccccc1
inactive: [2] 99 % of control | [3] 100 % of control | [4] 99 % of control

CN(C)c1ccc(C(=O)C2(Cl)CCCC(C)(C)C2)cc1 (stereo not drawn)
inactive: dose: 100.0 mg/kg/injection, schedule: Q04DX002 (ip), vehicle: Klucel (hydroxypropylcellulose) (HPC) 102 % of control | dose: 200.0 mg/kg/injection, schedule: Q04DX002 (ip), vehicle: Klucel (hydroxypropylcellulose) (HPC) 99 % of control | dose: 400.0 mg/kg/injection, schedule: Q04DX002 (ip), vehicle: Klucel (hydroxypropylcellulose) (HPC) 94 % of control

CN(C)CCNc1ccc([N+](=O)[O-])c2sc3ccccc3c(=O)c12
inactive: [5] 114 % of control | [6] 103 % of control and 89 % of control

O=Cc1ccc(N2OC3C(=O)N(c4ccccc4)C(=O)C3C2c2ccc([N+](=O)[O-])cc2)cc1 (stereo not drawn)
inactive: [7] 96 % of control | [8] 92 % of control | [9] 97 % of control

CCOC1(C)C=CC(=NC(C)(C)C)C=C1 (stereo not drawn)
inactive: [10] 97 % of control | [11] 101 % of control | [6] 101 % of control

COC(=O)C1(C)N=C1N(C)C (stereo not drawn)
inactive: [2] 92 % of control | [3] 90 % of control | [4] 93 % of control

Cn1c(=O)n2n(c1=O)C1C3C4C3C3C5(COCC135)C42 (stereo not drawn)
inactive: [12] 97 % of control | [13] 92 % of control | dose: 200.0 mg/kg/injection, schedule: Q01DX009 (ip), vehicle: Klucel (hydroxypropylcellulose) (HPC) 97 % of control

CC(C)(C)N=C(CCC(C#N)(C#N)CCC(=NC(C)(C)C)Nc1ccc([N+](=O)[O-])cc1)Nc1ccc([N+](=O)[O-])cc1
inactive: [11] 98 % of control | [6] 95 % of control | [14] 88 % of control

Cc1cc(=O)n(-c2ccc([N+](=O)[O-])cc2Cl)c(C)c1C(=O)O
inactive: [15] 103 % of control | [16] 96 % of control | [17] 106 % of control

O=C(Oc1ccccc1OC(=O)c1ccccc1)c1ccccc1
inactive: dose: 6.25 mg/kg/injection, schedule: Q01DX009 (ip), vehicle: saline with Tween-80 108 % of control | [5] 102 % of control | [10] 106 % of control | [11] 108 % of control

CC1=NN(C(=O)c2ccccn2)C(c2ccccc2)/C1=N\Nc1ccc(S(N)(=O)=O)cc1 (stereo not drawn)
inactive: [18] 87 % of control | [19] 93 % of control | [20] 87 % of control

O=C1/C(=C/c2ccc(O)c(O)c2)Cc2ccccc21
inactive: [10] 102 % of control | [11] 103 % of control | [6] 105 % of control | [14] 103 % of control

COc1ccc2c(c1)c(NCCCCCC#N)cc(C)[n+]2C
inactive: dose: 12.5 mg/kg/injection, schedule: Q01DX005 (ip), vehicle: saline with Tween-80 100 % of control | [21] 100 % of control | [15] 105 % of control

C=CCC1(OC(C)=O)CC2C(=O)C(=O)C(C1)N2OC(=O)c1ccccc1 (stereo not drawn)
inactive: [7] 100 % of control | [8] 87 % of control | [9] 94 % of control

O=C1c2ccccc2C(Cl)(c2ccc(Cl)cc2)c2ccc(Cl)cc21 (stereo not drawn)
inactive: [21] 107 % of control

C=C(C)C1CC2(C)C(C)CC(O)CC2C(OC(=O)/C=C(/C)CC)C1O (stereo not drawn)
inactive: dose: 12.5 mg/kg/injection, schedule: Q01DX009 (ip), vehicle: Klucel (hydroxypropylcellulose) (HPC) 97 % of control | dose: 25.0 mg/kg/injection, schedule: Q01DX009 (ip), vehicle: Klucel (hydroxypropylcellulose) (HPC) 98 % of control | [12] 97 % of control | [13] 97 % of control

CNC(=O)NC(c1ccc(F)cc1)c1cc2c(cc1O)OCO2 (stereo not drawn)
inactive: [18] 96 % of control | [19] 96 % of control | [20] 87 % of control

COC(=O)[C@]1(C)CCC[C@@]2(C)[C@@H]3C[C@@H]4[C@H]5C[C@@]3(CC[C@@H]21)C[C@@]45C
inactive: [22] 100 % of control | [7] 97 % of control | [8] 97 % of control | [9] 95 % of control

Nc1ncnc2c1ncn2C1(CO)OCC(O)C(O)C1O (stereo not drawn)
inactive: [7] 101 % of control | [8] 100 % of control | [9] 101 % of control

COc1ccc(-c2cc(-c3ccccc3)[nH]c(=O)c2C#N)cc1
inactive: dose: 12.5 mg/kg/injection, schedule: Q01DX009 (ip), vehicle: acid diluted with saline 101 % of control | dose: 25.0 mg/kg/injection, schedule: Q01DX009 (ip), vehicle: acid diluted with saline 99 % of control | dose: 50.0 mg/kg/injection, schedule: Q01DX009 (ip), vehicle: acid diluted with saline 101 % of control

CCOC(=O)CCC1CCCCC1=O (stereo not drawn)
inactive: [11] 103 % of control | [6] 93 % of control | [14] 103 % of control

O=C(O)CSc1ccc2c3c(cccc13)C(=O)c1ccccc1-2
inactive: dose: 6.25 mg/kg/injection, schedule: Q01DX009 (ip), vehicle: saline 100 % of control | dose: 12.5 mg/kg/injection, schedule: Q01DX009 (ip), vehicle: saline 99 % of control and 111 % of control | dose: 25.0 mg/kg/injection, schedule: Q01DX009 (ip), vehicle: saline 111 % of control | [23] 108 % of control | [24] 104 % of control

O=C1c2ccccc2C(O)(c2ccc(Cl)cc2)c2ccc(Cl)cc21 (stereo not drawn)
inactive: [15] 95 % of control | [16] 98 % of control | [17] 101 % of control

Cc1cccc(-c2nc3c(C)nc(-c4ccccc4)nc3n2Nc2ccccc2)c1
inactive: dose: 100.0 mg/kg/injection, schedule: Q01DX001 (ip), vehicle: Klucel (hydroxypropylcellulose) (HPC) 87 % of control

CN(C)Cc1cn(C)c2ccccc12
inactive: dose: 12.5 mg/kg/injection, schedule: Q01DX005 (ip), vehicle: saline 99 % of control | dose: 25.0 mg/kg/injection, schedule: Q01DX005 (ip), vehicle: saline 93 % of control | dose: 50.0 mg/kg/injection, schedule: Q01DX005 (ip), vehicle: saline 98 % of control and 95 % of control

CC1=CCCC(C)(C)C1/C=C(/C#N)C(=O)N=C(N)N (stereo not drawn)
inactive: [23] 99 % of control | [24] 97 % of control | dose: 200.0 mg/kg/injection, schedule: Q01DX009 (ip), vehicle: saline 99 % of control

BrC1CCCCC(Br)C12OCCO2 (stereo not drawn)
inactive: dose: 100.0 mg/kg/injection, schedule: Q04DX003 (ip), vehicle: saline 107 % of control | dose: 200.0 mg/kg/injection, schedule: Q04DX003 (ip), vehicle: saline 104 % of control | dose: 400.0 mg/kg/injection, schedule: Q04DX003 (ip), vehicle: saline 106 % of control

CCCCC(CC)C(=O)OC(C)C(=O)N(CCCC)CCCC (stereo not drawn)
inactive: [22] 105 % of control | [7] 103 % of control | [8] 105 % of control | [9] 95 % of control

O=C1c2ccccc2C(=O)C2C1C1(c3ccccc3)OC2(c2ccccc2)c2ccccc21 (stereo not drawn)
inactive: [22] 101 % of control | [7] 99 % of control | [8] 101 % of control

CCC[N+]12CC=C3COC(=O)C(C)(O)C(C)(O)C(C)C(=O)OC(CC1)C32 (stereo not drawn)
inactive: dose: 60.0 mg/kg/injection, schedule: Q01DX005 (ip), vehicle: saline 100 % of control | dose: 120.0 mg/kg/injection, schedule: Q01DX005 (ip), vehicle: saline 105 % of control | dose: 240.0 mg/kg/injection, schedule: Q01DX005 (ip), vehicle: saline 98 % of control

COc1cc2[nH]c3cc(OC)c(OC)cc3c2cc1C
inactive: dose: 15.0 mg/kg/injection, schedule: Q01DX005 (ip), vehicle: saline with Tween-80 100 % of control | dose: 30.0 mg/kg/injection, schedule: Q01DX005 (ip), vehicle: saline with Tween-80 96 % of control | [1] 102 % of control and 86 % of control
